{"source": "patent US11702403B2", "about": "“EAAT2 activators and methods of using thereof” (OHIO STATE INNOVATION FOUNDATION, priority 2018, dated 2023)", "key": {"human EAAT2": {"test_system": "human EAAT2", "assay": "EAAT2 protein levels in PA-EAAT2 cells by Western blot", "format": "cell-based", "protocol": "Compounds were evaluated in PA-EAAT2 cells, a primary astrocyte stably expressing human EAAT2 mRNAs (Kong et al., J Clin Invest. 2014:1255-67). Cells were treated with compound at 0.0375, 0.075, 0.15, 0.3, 0.6, 1.25, 2.5, 5, 10 μM for 24 hr and then harvested for measuring EAAT2 protein levels by Western blot analysis."}, "EAAT2 [1]": {"test_system": "EAAT2", "assay": "EAAT2 protein levels in brains of wild-type C57BL/6 mice by Western blot", "format": "in vivo", "settings": "10 mpk p.o.", "protocol": "Mice then were euthanized and brains were harvested for examining EAAT2 protein levels by Western blot analysis.\nWild-type C57BL/6 mice (2-3 months old) were treated orally with compound 101 at 0.01, 0.033, 0.1, 0.33, 1, 3.33, 10, 20, 40, 60, and 100 mg/kg/day (voluntary ingestion of compound in honey) for seven or 28 days. Mice then were euthanized and brains were harvested for examining EAAT2 protein levels by Western blot analysis. […] To determine the functional consequences of the increased EAAT2 to the synaptic plasticity, wild-type mice were treated with vehicle or compound 101 at 0.033, 0.33, and 3.3 mg/kg for seven days. Mice were then euthanized and acute hippocampal slices were collected and assessed for changes in long-term potentiation (LTP)."}, "EAAT2 [2]": {"test_system": "EAAT2", "assay": "EAAT2 protein levels in forebrain gliosomes of wild-type FVB/NJ mice by Western blot", "format": "in vivo", "settings": "oral 1, 2.5, 5, 10, 20, 40 mg/kg, 24 hours post-treatment", "protocol": "(§1) Mice were treated with compound at 40 mg/kg (or as depicted) and forebrains were harvested for the gliosome preparation 24 hr (or as described) post-treatment. FIG. 2A: Western blots show dose-dependent increase of EAAT2 protein levels. FIG. 2B: Time-dependent fold increase in EAAT2 protein expression in response to compound treatment at 4 hours (1.54±0.13) and 24 hours (1.98±0.19) post-treatment. Quantification of EAAT2 expression time course (normalized to flotilin; n=4/group). Data represented as mean SEM and analyzed using one-way ANOVA with Tukey post-hoc test. *p<0.05, **p<0.01. FIG. 2C: Compound treatment enhances CA3-CA1 LTP in the hippocampus. Mice were treated with vehicle or compound for seven days and acute hippocampal sections were collected for LTP recordings. […] Data represented as mean SEM analyzed using one-way ANOVA with Bonferroni post-hoc tests. Statistical significance denoted as ***p<0.001.\nAt 24 hours post-treatment, mice were euthanized and forbrains were harvested. Gliosomes (astrocytic processes) were then isolated for measuring EAAT2 protein levels by Western blot analysis. […] This induction could be seen as early as 4 hours post-treatment (FIG. 2B). […] Acute hippocampal slices were then collected and assessed for changes in long-term potentiation (LTP)."}, "[3]": {"test_system": "CA3-CA1 LTP in the hippocampus", "assay": "Long-term potentiation (LTP) in acute hippocampal slices of treated wild-type mice", "format": "in vivo", "settings": "10 mg/kg for 7 days, vs vehicle, up to 30 min after LTP induction", "protocol": "as §1, with “Statistical significance denoted as ***p<0.001.” left out\nAt 24 hours post-treatment, mice were euthanized and forbrains were harvested. […] Acute hippocampal slices were then collected and assessed for changes in long-term potentiation (LTP).\nWild-type C57BL/6 mice (2-3 months old) were treated orally with compound 101 at 0.01, 0.033, 0.1, 0.33, 1, 3.33, 10, 20, 40, 60, and 100 mg/kg/day (voluntary ingestion of compound in honey) for seven or 28 days. […] Mice were then euthanized and acute hippocampal slices were collected and assessed for changes in long-term potentiation (LTP)."}, "EAAT2 [4]": {"test_system": "EAAT2", "assay": "EAAT2 protein levels in brains of Beagle dogs by Western blot", "format": "in vivo", "settings": "oral 20 mg/kg; 0.5, 4, 24 hours post-treatment and seven daily treatment"}, "tau": {"test_system": "tau", "assay": "Tau expression and phosphorylation in total cell lysates and Sarkosyl insoluble fractions of rTg4510 forebrains", "format": "in vivo, mice", "description": "(§2) FIGS. 7A and 7B illustrate the effect of compound treatment on phosphorylated tau in total lysates (TCL) and in the Sarkosyl insoluble (P3) fraction (n=4/group). Dashed-line represents expression in rTg4510 vehicle group.\nWe, therefore, investigated if the compound could reduce toxic forms of tau. […] Four antibodies, which recognized different phosphorylation sites or pathological forms of tau, were used: PHF1 recognized Ser 396 & Ser404; AT8 recognized Ser202 & Thr205; MC-1 recognized neurofibrillary tangles and Tau5 recognized all of tau (phosphorylated and non-phosphorylated isoforms). […] There was an especially significant reduction in the 64 kDa (hyperphosphorylated) variant for each antibody tested; it has been reported that the 64 kDa variant was strongly correlated with neurodegeneration.\n[…] The phosphorylation (activation) state of kinases that have been reported to target tau as a substrate were assessed. […] This form of phosphorylation inhibits GSK3β activity. Therefore, inactivation of the GSK3β kinase may mediate reduced tau phosphorylation in rTg4510 mice after compound treatment."}, "GSK3β": {"test_system": "GSK3β", "assay": "Phosphorylation state of kinases in forebrain TCL of rTg4510 mice", "format": "in vivo", "settings": "within one hour of treatment, single dose", "protocol": "as §2\nTo identify which kinase/phosphatase is involved, forebrain TCL samples were collected from rTg4510 mice one-hour after a single dose. The phosphorylation (activation) state of kinases that have been reported to target tau as a substrate were assessed. […] This form of phosphorylation inhibits GSK3β activity. Therefore, inactivation of the GSK3β kinase may mediate reduced tau phosphorylation in rTg4510 mice after compound treatment."}, "[5]": {"test_system": "mouse model of Gulf War Illness (GWI)", "assay": "Mouse model of Gulf War Illness, mood and cognitive behavior tests", "format": "in vivo, C57BL/6J mice", "protocol": "Three months old C57BL/6J mice were randomly divided into three groups: control (no GWI, with vehicle), GWI with vehicle, and GWI with compound. For GWI groups, mice were exposed to GWI chemicals and chronic unpredictable stress daily for 6 weeks. GWI chemicals include pyridostigmine (1.3 mg/kg), permethrin (0.13 mg/kg), and DEET (40 mg/kg). The stress regimen included exposure to two different stressors each day. The stressors used in this study include restraint, cage rotation, hot stress, cold stress, predator sound, periods of darkness during the light cycle, wet bedding, replace bedding with water, cage tilt at 45 degree angle, and stroboscopic lighting. […] At 3-months post-exposure, mice were subjected to several behavior tests to assess mood and cognitive functions. These tests included dark and light exploration, elevated plus maze, novelty suppressed feeding, tail suspension open field, novel object recognition, and Barnes maze tests.\nAfter one month of treatment, mice were evaluated for mood and cognitive functions."}, "[6]": {"settings": "prevention: 20 mg/kg daily from beginning of 6-weeks exposure, tested 3-months post-exposure"}, "[7]": {"settings": "treatment: 20 mg/kg at five months post-exposure, one month of treatment"}}, "data": [{"smiles": "CN(C)CCn1nc(-c2ccccn2)ccc1=O", "note": "[Compound 100, 2-(2-(dimethylamino)ethyl)-6-(pyridin-2-yl)pyridazin-3(2H)-one]", "values": [{"measurement": "concentration that reaches maximum activity", "setting": "human EAAT2; PA-EAAT2 cells, 24 hr, tested 0.0375-10 μM", "value": 0.6, "unit": "µM"}, {"measurement": "EC50", "setting": "human EAAT2; primary astrocytes, read-out: EAAT2 induction in vitro - primary astrocytes (EC50)", "value": 250, "unit": "nM"}, {"measurement": "EAAT2 induction in vivo in wild-type mice - 7-day dosing by p.o.", "setting": "EAAT2 [1]; 7-day dosing", "value": "1.63-fold @ 10 mpk"}, {"measurement": "EAAT2 induction in vivo in wild-type mice - 28-day dosing by p.o.", "setting": "EAAT2 [1]; 28-day dosing", "value": "2.37-fold @ 10 mpk"}, {"measurement": "EAAT2 induction in vivo in wild-type mice - single dose by p.o.", "setting": "EAAT2 [1]; single dose", "value": "1.56-fold @ 10 mpk"}, {"measurement": "EAAT2 protein levels in gliosomes", "setting": "EAAT2 [2]", "value": "induced EAAT2 expression in a dose-dependent manner"}, {"measurement": "CA1 field potential responses to stimulation of CA3 afferents (LTP)", "setting": "[3]", "value": "significantly increased responses"}, {"measurement": "EAAT2 protein levels in dog brains", "setting": "EAAT2 [4]", "value": "increased in a time-dependent manner"}, {"measurement": "total-tau (transgene expression)", "setting": "tau; four months old, after two months of treatment", "value": "no reduction in total-tau"}, {"measurement": "total tau in the P3 fraction", "setting": "tau; long-term treatment, Sarkosyl insoluble (P3) fraction", "value": "very significant reduction"}, {"measurement": "phosphorylated (AT8 and PHF1) and conformation specific (MC1) forms of tau", "setting": "tau; long-term treatment, TCL and P3 fraction", "value": "reduced"}, {"measurement": "all forms of tau in the P3 fraction", "setting": "tau; single dose, 24 hours later", "value": "very clear reduction"}, {"measurement": "pTau (AT8 and PHF1) in TCL", "setting": "tau; single dose, 24 hours later", "value": "significant decrease"}, {"measurement": "total tau (Tau-5) or tau tangles (MC1) in TCL", "setting": "tau; single dose, 24 hours later", "value": "no change"}, {"measurement": "phosphorylation of GSK3β at Ser9", "setting": "GSK3β", "value": "approximately 2 fold"}, {"measurement": "anxiety- and depression-like behaviors", "setting": "[5]; [6]", "value": "significantly reduced"}, {"measurement": "cognitive functions", "setting": "[5]; [6]", "value": "improved cognitive functions"}, {"measurement": "anxiety- and depression-like behaviors", "setting": "[5]; [7]", "value": "reduced anxiety- and depression-like behaviors"}, {"measurement": "cognitive functions", "setting": "[5]; [7]", "value": "significantly improved"}]}]}
